Assay [1] deals with KB. As to the kind of experiment: Cytotoxicity against human KB cells. The class given is functional, cell-based.
Assay [2] concerns the target T1, DNA topoisomerase 1 (Homo sapiens) (UniProt P11387).
T1 sequence (whole entry): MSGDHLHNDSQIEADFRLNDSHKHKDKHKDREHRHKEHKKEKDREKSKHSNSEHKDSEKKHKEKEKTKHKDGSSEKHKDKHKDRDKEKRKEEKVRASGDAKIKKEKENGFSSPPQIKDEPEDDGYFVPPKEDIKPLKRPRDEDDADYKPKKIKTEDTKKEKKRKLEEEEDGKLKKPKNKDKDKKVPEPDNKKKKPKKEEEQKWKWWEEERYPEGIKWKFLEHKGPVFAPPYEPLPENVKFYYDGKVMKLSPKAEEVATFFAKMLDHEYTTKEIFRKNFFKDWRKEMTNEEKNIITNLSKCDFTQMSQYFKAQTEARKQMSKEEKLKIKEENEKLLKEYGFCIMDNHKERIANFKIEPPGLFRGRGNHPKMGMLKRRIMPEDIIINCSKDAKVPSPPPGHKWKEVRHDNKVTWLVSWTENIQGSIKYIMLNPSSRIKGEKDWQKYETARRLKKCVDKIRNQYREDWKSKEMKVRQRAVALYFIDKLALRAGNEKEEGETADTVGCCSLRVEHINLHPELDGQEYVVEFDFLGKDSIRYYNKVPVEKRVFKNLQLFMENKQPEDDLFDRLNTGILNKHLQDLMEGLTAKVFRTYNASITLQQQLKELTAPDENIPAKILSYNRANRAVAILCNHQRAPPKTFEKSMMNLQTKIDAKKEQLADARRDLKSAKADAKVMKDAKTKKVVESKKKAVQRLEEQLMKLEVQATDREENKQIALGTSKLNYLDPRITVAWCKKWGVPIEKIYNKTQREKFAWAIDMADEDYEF
As to the kind of experiment: Inhibition of DNA topoisomerase 1.

The test system of assay [3] is L1210. As to the kind of experiment: Cytotoxicity against mouse L1210 cells. Format: functional, cell-based.
Assay [4] concerns L1210. As to the kind of experiment: Cytotoxicity against mouse L1210 cells at 10 ug/ml. Format: functional.
In assay [5] the test system is KB. Description: Cytotoxicity against human KB cells at 10 ug/ml. The class given is functional.

Values after ≈ are worked out from the molar mass of the structure shown.

Broadly, the IC50 is the concentration at which inhibition is half-maximal. A low value points to higher potency. Regarding `C[C@@]12CCC(=O)c3coc(c31)C(=O)c1cc3c(cc12)C(=O)C=CC3=O` [HELENAQUINONE], the IC50 is 3.1 µg/mL (≈ 9.33 µM) in the assay on KB [1] and 1.6 µg/mL (≈ 4.81 µM) in the assay with L1210 [3]. The molecule also displayed an MIC in assay [2] of 0.4 µg/mL (≈ 1.2 µM).
For `C[C@@]12CCCc3coc(c31)C(=O)c1cc3c(cc12)C(=O)C=CC3=O` [XESTOQUINONE] the same measures were 1.7 µg/mL (≈ 5.34 µM), 0.17 µg/mL (≈ 0.534 µM) and 2 µg/mL (≈ 6.28 µM).
With `C[C@@]12CCC(=O)c3coc(c31)C(=O)c1cc3c(O)ccc(OS(=O)(=O)[O-])c3cc12.[Na+]` [HALENAQUINOL SULFATE SODIUM], in assay [2], the MIC was over 50 µg/mL. For the same molecule, the Activity in the assay on L1210 [4] was found to be 22.4%; in the assay with KB [5], 12.2%.
The like results for `C[C@@]12CC[C@H](O)[C@@H]3COC(=C31)C(=O)c1cc3c(cc12)C(=O)CCC3O` (some centres not stated) were, in that order, 2.5 µg/mL (≈ 7.34 µM), 14.5% and 9.8%.
The molecule `C[C@@]12CCCc3coc(c31)C(=O)c1cc3c(O)ccc(OS(=O)(=O)[O-])c3cc12.[Na+]` [XESTOQUINOL SULFATE SODIUM] yielded an MIC in assay [2] of 10 µg/mL. For the same molecule, the Activity with L1210 [4] was 25.4%.
For the molecule `C[C@@]12CC[C@H](O)[C@@H]3COC(=C31)C(=O)c1cc3c(cc12)C(O)CCC3=O` (some centres not stated) [XESTOSAPROL A], the MIC in assay [2] was 12.5 µg/mL (≈ 36.7 µM). For the same molecule, the Activity in the assay on L1210 [4] is recorded as 34.9%; in the assay on KB [5], 30.1%.

Values taken from ChEMBL document CHEMBL1149726, “New Pentacyclic Compounds from the Okinawan Marine Sponge Xestospongia sapra” (J Nat Prod, 1992).
